Paper PMC5291411, “Cytotoxic conjugates of betulinic acid and substituted triazoles prepared by Huisgen Cycloaddition from 30-azidoderivatives” (PLoS ONE, 2017)

What was measured:
Format in all cases: cell-based
HCT116p53-/- = experiment: Cytotoxic MTS assay, HCT116p53-/-; conditions: Homo sapiens, 72 h, p53 knock-down colorectal tumor
From the text: (§1) Cytotoxic activity of all synthesized compounds was investigated in vitro against eight human cancer cell lines and two non-tumor fibroblasts using the standard MTS test (Table 1). The cancer cell lines were derived from T-lymphoblastic leukemia CCRF-CEM, leukemia K562 and their multiresistant counterparts expressing P-glycoprotein, MRP1 and LRP proteins (CEM-DNR, K562-TAX), solid tumors including lung (A549) and colon (HCT116, HCT116p53-/-) carcinomas, osteosarcoma cell line (U2OS), and for comparison, tests were performed on two human non-cancer fibroblast cell lines (BJ, MRC-5).
(§2) Biological assays were performed in concordance with our previous publications [[29], [58]; [60]; [61]]. All cells (if not indicated otherwise) were purchased from the American Tissue Culture Collection (ATCC). The CCRF-CEM line is derived from T lymphoblastic leukemia, evincing high chemosenzitivity, K562 represent cells from an acute myeloid leukemia patient sample with bcr-abl translocation, U2OS line is derived from osteosarcoma, HCT116 is colorectal tumor cell line and its p53 gene knock-down counterpart (HCT116p53-/-, Horizon Discovery Ltd, UK) is a model of human cancers with p53 mutation frequently associated with poor prognosis, A549 line is lung adenocarcinoma. The daunorubicin resistant subline of CCRF-CEM cells (CEM-DNR bulk) and paclitaxel resistant subline K562-TAX were selected in our laboratory by the cultivation of maternal cell lines in increasing concentrations of daunorubicine or paclitaxel, respectively. The CEM-DNR bulk cells overexpress MRP-1 and P-glycoprotein protein, while K562-TAX cells overexpress P-glycoprotein only. Both proteins belong to the family of ABC transporters and are involved in the primary and/or acquired multidrug resistance phenomenon. MRC-5 and BJ cell lines were used as a non-tumor control and represent human fibroblasts. The cells were maintained in nunc/corning 80 cm^2 plastic tissue culture flasks and cultured in cell culture medium according to ATCC or Horizon recommendations (DMEM/RPMI 1640 with 5 g/L glucose, 2 mM glutamine, 100 U/mL penicillin, […] streptomycin, 10% fetal calf serum, and NaHCO3).
(§3) MTS assay was performed at Institute of Molecular and Translational Medicine by robotic platform (HighResBiosolutions). Cell suspensions were prepared and diluted according to the particular cell type and the expected target cell density (25000–35000 cells/mL based on cell growth characteristics). Cells were added by automatic pipetor (30 μL) into 384 well microtiter plates. All tested compounds were dissolved in 100% DMSO and four-fold dilutions of the intended test concentration were added in 0.15 μL aliquots at time zero to the microtiter plate wells by the echoacustic non-contact liquid handler Echo550 (Labcyte). The experiments were performed in technical duplicates and three biological replicates at least. The cells were incubated with the tested compounds for 72 h at 37°C, in a 5% CO2 atmosphere at 100% humidity. At the end of the incubation period, the cells were assayed by using the MTS test. Aliquots (5 μL) of the MTS stock solution were pipetted into each well and incubated for additional 1–4 h. After this incubation period, the optical density (OD) was measured at 490 nm with an Envision reader (Perkin Elmer). Tumor cell survival (TCS) was calculated by using the following equation: TCS = (ODdrug-exposed well/mean ODcontrol wells) × 100%. The IC50 value, the drug concentration that is lethal to 50% of the tumor cells, was calculated from the appropriate dose-response curves in Dotmatics software.

CEM-DNR = experiment: Cytotoxic MTS assay, CEM-DNR; conditions: Homo sapiens, 72 h, daunorubicin resistant subline of CCRF-CEM
From the text: as §1, §2, §3

K562-TAX = experiment: Cytotoxic MTS assay, K562-TAX; conditions: Homo sapiens, 72 h, paclitaxel resistant subline of K562
From the text: as §1, §2, §3

MRC-5 = experiment: Cytotoxic MTS assay, MRC-5 fibroblasts; conditions: Homo sapiens, MRC5, 72 h, non-tumor fibroblasts
From the text: as §1, §2, §3

BJ = experiment: Cytotoxic MTS assay, BJ fibroblasts; conditions: Homo sapiens, 72 h, non-tumor fibroblasts
From the text: as §1, §2, §3

U2OS = experiment: Cytotoxic MTS assay, U2OS; conditions: Homo sapiens, 72 h, osteosarcoma
From the text: as §1, §2, §3

HCT116 = experiment: Cytotoxic MTS assay, HCT116; conditions: Homo sapiens, HCT-116, 72 h, colorectal tumor
From the text: as §1, §2, §3

A549 = experiment: Cytotoxic MTS assay, A549; conditions: Homo sapiens, 72 h, lung adenocarcinoma
From the text: as §1, §2, §3

CCRF-CEM = experiment: Cytotoxic MTS assay, CCRF-CEM; conditions: Homo sapiens, 72 h, T-lymphoblastic leukemia
From the text: as §1, §2, §3

K562 = experiment: Cytotoxic MTS assay, K562; conditions: Homo sapiens, 72 h, leukemia
From the text: as §1, §2, §3

SMILES	IC50 (HCT116p53-/-) [µM]	IC50 (CEM-DNR) [µM]	IC50 (K562-TAX) [µM]	IC50 (MRC-5) [µM]	IC50 (BJ) [µM]	IC50 (U2OS) [µM]	IC50 (HCT116) [µM]	IC50 (A549) [µM]	IC50 (CCRF-CEM) [µM]	IC50 (K562) [µM]
C=C(Cn1cc(CN)nn1)[C@@H]1CC[C@]2(C(=O)O)CC[C@]3(C)C(CCC4[C@@]5(C)CC[C@H](OC(C)=O)C(C)(C)C5CC[C@]43C)C12 (stereo partly drawn) [Compound 9h]	> 50	28.3	> 50	> 50	> 50	30.6	32	30.5	20.2	> 50
C=C(C)[C@@H]1CC[C@]2(C(=O)O)CC[C@]3(C)[C@H](CC[C@@H]4[C@@]5(C)CC[C@H](O)C(C)(C)[C@@H]5CC[C@]43C)[C@@H]12 [Compound 1, betulinic acid]	> 50	45.4	43.1	32.9	37.6	> 50	38	43.4	45.5	40
C=C(Cn1cc(-c2ccc(C(C)(C)C)cc2)nn1)[C@@H]1CC[C@]2(C(=O)O)CC[C@]3(C)C(CCC4[C@@]5(C)CC[C@H](OC(C)=O)C(C)(C)C5CC[C@]43C)C12 (stereo partly drawn) [Compound 9f]	48.4	15	23.4	> 50	> 50	45.8	41.9	45	34.5	15.6
C=C(Cn1cc(C2CCCC2)nn1)[C@@H]1CC[C@]2(C(=O)O)CC[C@]3(C)C(CCC4[C@@]5(C)CC[C@H](O)C(C)(C)C5CC[C@]43C)C12 (stereo partly drawn) [Compound 11g]	> 50	38	23.3	> 50	> 50	> 50	33.5	> 50	16.7	> 50
C=C(Cn1cc(-c2ccccc2)nn1)[C@@H]1CC[C@]2(C(=O)O)CC[C@]3(C)C(CCC4[C@@]5(C)CC[C@H](O)C(C)(C)C5CC[C@]43C)C12 (stereo partly drawn) [Compound 11a]	> 50	23.8	23.3	> 50	> 50	> 50	> 50	> 50	16.6	> 50
C=C(Cn1cc(-c2ccccc2)nn1)[C@@H]1CC[C@]2(C(=O)O)CC[C@]3(C)C(CCC4[C@@]5(C)CC[C@H](OC(C)=O)C(C)(C)C5CC[C@]43C)C12 (stereo partly drawn) [Compound 9a]	31.1	19.5	19.1	32.4	> 50	24.8	25.1	23.4	13.4	15.1
C=C(Cn1cc(C2CCCC2)nn1)[C@@H]1CC[C@]2(C(=O)O)CC[C@]3(C)C(CCC4[C@@]5(C)CC[C@H](OC(C)=O)C(C)(C)C5CC[C@]43C)C12 (stereo partly drawn) [Compound 9g]	47.6	30.8	29.1	> 50	> 50	44.1	38.3	> 50	26.2	43.6
C=C(Cn1cc(-c2ccc(C(C)(C)C)cc2)nn1)[C@@H]1CC[C@]2(C(=O)O)CC[C@]3(C)C(CCC4[C@@]5(C)CC[C@H](O)C(C)(C)C5CC[C@]43C)C12 (stereo partly drawn) [Compound 11f]	> 50	13.7	16	> 50	> 50	> 50	36.7	> 50	> 50	> 50
C=C(Cn1cc(-c2ccc(N(C)C)cc2)nn1)[C@@H]1CC[C@]2(C(=O)O)CC[C@]3(C)C(CCC4[C@@]5(C)CC[C@H](OC(C)=O)C(C)(C)C5CC[C@]43C)C12 (stereo partly drawn) [Compound 9e]	33.1	29.6	30	30.3	35.1	31	32.9	26.6	19.4	35.4
